In patent US8329645B2, “Polymyxin derivatives and uses thereof” (priority 2008, dated 2012):
Converted amounts (≈) assume the structure as drawn. Where a SMILES comes first, the peptide text is derived from it. Bridges are numbered along the chain shown (N, C = ends). [ ]: non-standard residue; d: D form. The star is where a group is joined. Decanoyl = CCCCCCCCCC(=O)*; Dab = NCC[C@H](N)C(=O)O

Key:
A. baumannii ATCC 19606 [1] = settings: ATCC 19606
Procedure: (§1) Polymyxin B sulfate (Sigma-Aldrich, St. Louis, Mo., USA) was used as a control. […] The bacterial test strains originated from ATCC (10 strains), CCUG (11 strains), and NCTC (3 strains). Fourteen (14) strains (the F-strains) were purchased from Mobidiag Ltd., Helsinki, Finland.
(§2) The inocula were prepared by adjusting the bacterial suspensions to a density equivalent to OD546 nm˜0.3 (˜10^8 CFU/ml˜0.5 McFarland) the yeast suspension to a density equivalent to OD546 nm˜0.75 (˜2×10^7 CFU/ml)._The suspensions were diluted to 10^7 CFU/ml. The plates were inoculated by using a Denley Multipoint Inoculator, 1 μl per spot corresponding to approx. 10^4 CFU/spot. Plates were incubated for 16-20 hours at 35° C.

E. coli CCUG 41429 = settings: CCUG 41429
Procedure: as §1, §2

K. pneumoniae ATCC 13883 = settings: ATCC 13883
Procedure: as §1, §2

P. aeruginosa ATCC 27853 = settings: ATCC 27853
Procedure: as §1, §2

E. cloacae F230 = settings: F230
Procedure: as §1, §2

E. coli CCUG 41425 = settings: CCUG 41425
Procedure: as §1, §2

C. freundii ATCC 8090 = settings: ATCC 8090
Procedure: as §1, §2

E. cloacae F231 = settings: F231
Procedure: as §1, §2

E. cloacae F232 = settings: F232
Procedure: as §1, §2

K. pneumoniae F144 = settings: K. pneumoniae F144
Procedure: as §1, §2

E. coli NCTC 13351 = settings: NCTC 13351
Procedure: as §1, §2

P. aeruginosa CCUG 51971 = tested on: P. aeruginosa CCUG 51971
Procedure: as §1, §2

E. cloacae ATCC 23355 = settings: ATCC 23355
Procedure: as §1, §2

K. oxytoca CCUG 51683 = settings: CCUG 51683
Procedure: as §1, §2

E. coli IH3080 = settings: IH3080
Procedure: as §1, §2

A. baumannii F264 = settings: F264
Procedure: as §1, §2

[2] = tested on: S. maltophilia ATCC 17444; settings: ATCC 17444
Procedure: as §1, §2

P. aeruginosa F58 = settings: F58
Procedure: as §1, §2

E. cloacae CCUG 52947 = settings: CCUG 52947
Procedure: as §1, §2

E. coli F8 = settings: F8
Procedure: as §1, §2

C. albicans ATCC 28366 = settings: ATCC 28366
Procedure: as §1, §2

K. oxytoca ATCC 13182 = settings: ATCC 13182
Procedure: as §1, §2

S. aureus ATCC 25923 = settings: ATCC 25923
Procedure: as §1, §2

E. coli NCTC 13352 = settings: NCTC 13352
Procedure: as §1, §2

E. coli CCUG 41424 = settings: CCUG 41424
Procedure: as §1, §2

E. coli CCUG 41427 = settings: CCUG 41427
Procedure: as §1, §2

A. baumannii F263 = settings: F263
Procedure: as §1, §2

E. coli F19 = settings: F19
Procedure: as §1, §2

E. coli F10 = settings: F10
Procedure: as §1, §2

E. coli F9 = settings: F9
Procedure: as §1, §2

K. pneumoniae F145 = settings: F145
Procedure: as §1, §2

S. marcescens ATCC 8100 = settings: ATCC 8100
Procedure: as §1, §2

E. coli NCTC 13353 = settings: NCTC 13353
Procedure: as §1, §2

E. coli CCUG 41432 = settings: CCUG 41432
Procedure: as §1, §2

E. coli CCUG 41422 = tested on: E. coli CCUG 41422
Procedure: as §1, §2

E. coli ATCC 25922 = settings: ATCC 25922
Procedure: as §1, §2

K. pneumoniae F136 = settings: F136
Procedure: as §1, §2

K. pneumoniae CCUG 45421 = settings: CCUG 45421
Procedure: as §1, §2

A. baumannii ATCC 19606 [3] = assay: Sensitization to rifampin: growth inhibition around wells on LB plates containing rifampin; assay type: cell-based, Acinetobacter baumannii; settings: 4 μg
[4] = tested on: Ps. aeruginosa ATCC 27853; assay: as above; assay type: cell-based, Pseudomonas aeruginosa; settings: 4 μg

CCCCCCCCCC(=O)N[C@H](C(=O)N[C@H](CO)C(=O)N[C@H]1CCNC(=O)[C@H]([C@@H](C)O)NC(=O)[C@H](CCN)NC(=O)[C@H](CCN)NC(=O)[C@H](CC(C)C)NC(=O)[C@@H](Cc2ccccc2)NC(=O)[C@H](CCN)NC1=O)[C@@H](C)O [NAB 740, DA-Thr-DSer-cy[Dab-Dab-DPhe-Leu-Dab-Dab-Thr-]] (Decanoyl-T[dS][Dab][Dab][dF]L[Dab][Dab]T; lactam 3-C)
MIC (A. baumannii ATCC 19606 [1]): 4 µg/mL (≈ 3.62 µM)
MIC (E. coli CCUG 41429): 1 µg/mL (≈ 0.906 µM)
MIC (K. pneumoniae ATCC 13883): 8 µg/mL (≈ 7.24 µM)
MIC (P. aeruginosa ATCC 27853): 4 µg/mL (≈ 3.62 µM)
MIC (E. cloacae F230): 2 µg/mL (≈ 1.81 µM)
MIC (E. coli CCUG 41425): 2 µg/mL (≈ 1.81 µM)
MIC (C. freundii ATCC 8090): 2 µg/mL (≈ 1.81 µM)
MIC (E. cloacae F231): 2 µg/mL (≈ 1.81 µM)
MIC (E. cloacae F232): 2 µg/mL (≈ 1.81 µM)
MIC (K. pneumoniae F144): 16(−4) μg/ml
MIC (E. coli NCTC 13351): 1 µg/mL (≈ 0.906 µM)
MIC (P. aeruginosa CCUG 51971): 8 µg/mL (≈ 7.24 µM)
MIC (E. cloacae ATCC 23355): 2 µg/mL (≈ 1.81 µM)
MIC (K. oxytoca CCUG 51683): 2 µg/mL (≈ 1.81 µM)
MIC (E. coli IH3080): 2 µg/mL (≈ 1.81 µM)
MIC (A. baumannii F264): 2 µg/mL (≈ 1.81 µM)
MIC [2]: 8 µg/mL (≈ 7.24 µM)
MIC (P. aeruginosa F58): 4 µg/mL (≈ 3.62 µM)
MIC (E. cloacae CCUG 52947): 2 µg/mL (≈ 1.81 µM)
MIC (E. coli F8): 2 µg/mL (≈ 1.81 µM)
MIC (C. albicans ATCC 28366): >32 µg/mL
MIC (K. oxytoca ATCC 13182): 2 µg/mL (≈ 1.81 µM)
MIC (S. aureus ATCC 25923): >32 µg/mL
MIC (E. coli NCTC 13352): 1 µg/mL (≈ 0.906 µM)
MIC (E. coli CCUG 41424): 2 µg/mL (≈ 1.81 µM)
MIC (E. coli CCUG 41427): 1 µg/mL (≈ 0.906 µM)
MIC (A. baumannii F263): 2 µg/mL (≈ 1.81 µM)
MIC (E. coli F19): 1 µg/mL (≈ 0.906 µM)
MIC (E. coli F10): 2 µg/mL (≈ 1.81 µM)
MIC (E. coli F9): 2 µg/mL (≈ 1.81 µM)
MIC (K. pneumoniae F145): 2 µg/mL (≈ 1.81 µM)
MIC (S. marcescens ATCC 8100): >32 µg/mL
MIC (E. coli NCTC 13353): 2 µg/mL (≈ 1.81 µM)
MIC (E. coli CCUG 41432): 2 µg/mL (≈ 1.81 µM)
MIC (E. coli CCUG 41422): 2 µg/mL (≈ 1.81 µM)
MIC (E. coli ATCC 25922): 2 µg/mL (≈ 1.81 µM)
MIC (K. pneumoniae F136): 2 µg/mL (≈ 1.81 µM)
MIC (K. pneumoniae CCUG 45421): 4 µg/mL (≈ 3.62 µM)
growth inhibition around a well in the presence of rifampin (A. baumannii ATCC 19606 [3]; rifampin 0 μg/ml): 133 square millimeters
growth inhibition around a well in the presence of rifampin (A. baumannii ATCC 19606 [3]; rifampin 0.3 μg/ml): 154 square millimeters
growth inhibition around a well in the presence of rifampin ([4]; rifampin 0 μg/ml): 64 square millimeters
growth inhibition around a well in the presence of rifampin ([4]; rifampin 0.1 μg/ml): 64 square millimeters
growth inhibition around a well in the presence of rifampin ([4]; rifampin 0.3 μg/ml): 64 square millimeters
